Patent US20140360376A1, “RECOVERY OF HIGHER ALCOHOLS FROM DILUTE AQUEOUS SOLUTIONS” (GEVO, INC., priority 2007, published 2014)
Values joined by “and” are separate entries in the source; they are usually repeats but may differ in a detail not shown here. Identical values can stand only once. Like-named read-outs stand apart in the source and are kept apart here. One block for each compound: values may come before it.

Tests used:
[1] = Enrichment/extraction of i-BuOH from aqueous solution by contact with 2-heptanone; format: physicochemical; conditions: 25° C.
[2] = Enrichment/extraction of i-BuOH from aqueous solution by contact with decanol; format: physicochemical; conditions: 25° C.
[3] = Enrichment by glucose addition followed by contact with gasoline; format: physicochemical; conditions: for Increase of alcohol concentration in the gasoline phase in the presence of glucose: compared with example 3 (no glucose); for Alcohol Wt % in heavy phase / Alcohol Wt % in light phase / Alcohol Da: gasoline, 20% (w/w) glucose, 24° C.; for Alcohol Da: light/heavy phase
Experimental: (§1) These solutions were then mixed with gasoline. The gasoline used was commercial grade with a 95 octane rating. At equilibrium, phase separation was observed forming an upper alcohol rich phase (light phase) and a lower alcohol lean phase (heavy phase). Both phases were analyzed for alcohol and water content. The distribution coefficient of the alcohol was calculated for each experiment by dividing the alcohol concentration in the light phase by the concentration in the heavy phase. The distribution coefficient for water was calculated accordingly. The Enrichment factor was calculated by dividing the distribution coefficient of alcohol by the distribution coefficient of water. All experiments were carried out at 24° C.

[4] = Enrichment by calcium chloride addition followed by contact with gasoline; format: physicochemical; conditions: for Increase of alcohol concentration in the gasoline phase in the presence of calcium chloride: compared with example 3 (no calcium chloride); for Alcohol Wt % in heavy phase / Alcohol Wt % in light phase / Alcohol Da: gasoline, 15% (w/w) calcium chloride, 24° C.; for Alcohol Da: light/heavy phase
Experimental: as §1, with “observed,” for “observed”, “contents.” for “content.”, “phase.” for “phase. The distribution coefficient for water was calculated accordingly. The Enrichment factor was calculated by dividing the distribution coefficient of alcohol by the distribution coefficient of water.”

[5] = Enrichment of C3-C6 alcohols from aqueous solutions by contact with octane; format: physicochemical; conditions: 24° C.
Experimental: Several aqueous solutions were prepared for each alcohol, differing in their alcohol concentrations, all of which were sub-saturated. […] The phase ratio between the aqueous solution and the solvent differed from one case to the other. Mixing was continued until equilibrium was reached. At equilibrium, phase separation could be observed forming an upper, alcohol-rich phase (light phase) and a lower, alcohol-lean phase (heavy phase). Both phases were analyzed for alcohol and water content. […] The water content of the organic phases was determined by the Karl-Fischer method. These analytical methods were also used for the analyses in the other examples.
The distribution coefficient of the alcohol was calculated for each experiment by dividing the alcohol concentration in the light phase by the alcohol concentration in the heavy phase. Similarly, the distribution coefficient for water was calculated by dividing the water concentration in the light phase by the water concentration in the heavy phase. The enrichment factor was calculated by dividing the distribution coefficient of alcohol by the distribution coefficient of water. In addition, the alcohol to water ratio (w/w) was calculated for the light phase.

[6] = Enrichment of C3-C6 alcohols from aqueous solutions by contact with gasoline; format: physicochemical; conditions: 24° C.
Experimental: The gasoline used was commercial grade with a 95 octane rating. […] Both phases were analyzed for alcohol and water content. The distribution coefficient of the alcohol was calculated for each experiment by dividing the alcohol concentration in the light phase by the concentration in the heavy phase. Similarly, the distribution coefficient for water was calculated by dividing the water concentration in the light phase by the water concentration in the heavy phase. The enrichment factor was calculated by dividing the distribution coefficient of alcohol by the distribution coefficient of water. All experiments were carried out at 24° C.

[7] = for Number of phases: aqueous propanol, 25° C.
Experimental: The number of liquid phases present in each mixture at 25° C. was noted.

[8] = Enrichment/extraction of i-BuOH from aqueous solution by contact with tri-butyl phosphate; format: physicochemical; conditions: 25° C.
[9] = Phase separation of 7% butanol or isobutanol solutions by addition of glucose; format: physicochemical; conditions: 7% alcohol, glucose 20% (w/w), 25° C.
Experimental: (§2) This example illustrates the induction of phase separation of butanol or isobutanol in water solutions by addition of glucose. […] The light and heavy phases were analyzed for alcohol content for each experiment. All experiments were carried out at 25° C. The distribution coefficient was calculated by division of the concentration of butanol in the light phase by the concentration of butanol in the heavy phase.

[10] = Phase separation of 4% butanol or isobutanol solutions by addition of calcium chloride; format: physicochemical; conditions: 4% alcohol, calcium chloride 15% (w/w), 25° C.
Experimental: as §2, with “calcium chloride addition.” for “addition of glucose.”

[11] = Mutual solubility of isobutanol and water as a function of temperature; format: physicochemical; conditions: isobutanol-water
Experimental: First, 20 g of water were mixed with 20 g isobutanol in closed vials at room temperature. The vials were then mixed at 5, 10, 20, 40, 60 or 80° C. The vials were held at the stated temperature while being mixed until equilibrium was established. Then the samples were separated into light and heavy phases while being held at temperature. The samples from the light and the heavy phases were analyzed by HPLC and by Karl-Fischer titration.

[12] = Contact of sub-saturated aqueous isobutanol with 3 Angstrom molecular sieve particles; format: physicochemical; conditions: 2 g sub-saturated aqueous isobutanol with 1.5 g of 3 Angstrom molecular sieve particles
Experimental: This example illustrates the isobutanol enrichment from aqueous isobutanol solutions using molecular sieves to adsorb water. A sub-saturated solution of isobutanol in water was prepared. Two grams of this solution were thoroughly mixed with 1.5 g of 3 Angstrom molecular sieve particles in a vial. After mixing, the vial was left to settle.

[13] = Phase separation of aqueous t-butanol by addition of glucose; format: physicochemical
Experimental: This example illustrates the induction of phase separation of t-butanol (t-BuOH) in water solution by addition of glucose. An aqueous solution of t-butanol (50% v/v) was prepared at 25° C. and glucose was added to a final concentration of 20% (w/v). […] Both phases were analyzed for t-butanol concentration. The t-BuOH and glucose concentrations in the heavy phase were about 150 g/L and about 45% w/w, respectively. The light phase had about 520 g/L of t-BuOH.

[14] = aqueous i-BuOH heavy phase, equilibrium
[15] = 50% v/v aqueous t-butanol, glucose 20% (w/v), 25° C.

SMILES: CCCCCC(C)=O [2-Heptanone]
- 2-Heptanone Wt % in heavy phase [1, 14]: 0.34 Wt % and 0.29 Wt % and 0.40 Wt %

SMILES: CCCCCCCCCCO [Decanol, decanol]
- Decanol Wt % in heavy phase [2, 14]: 0.0043 Wt % and 0.0053 Wt % and 0.0020 Wt %

SMILES: CCCO [PrOH, propanol]
- Alcohol Wt % in heavy phase ([5]; equilibrium): 1.9 Wt % and 5.7 Wt % and 0.66 Wt %
- Alcohol Wt % in light phase ([5]; equilibrium): 0.07 Wt % and 0.24 Wt % and 0.03 Wt %
- Enrichment factor ([5]; Da/Dw): >80 and >100
- Alcohol Wt % in heavy phase ([6]; equilibrium): 5.1 Wt % and 0.61 Wt % and 1.9 Wt %
- Alcohol Wt % in light phase ([6]; equilibrium): 0.50 Wt % and 0.08 Wt % and 0.16 Wt %
- Enrichment factor ([6]; Da/Dw): >200 and >240 and >160
- Miscibility with water ([7]; any proportion, no additive): fully miscible with water
- Number of phases ([7]; CaCl2 9.5%): 1
- Number of phases ([7]; CaCl2 15.1%): 2
- Number of phases ([7]; Glucose 40%): 1
- Number of phases ([7]; Glucose 60%): 2
- Number of phases ([7]; Sucrose 40%): 2
- Number of phases ([7]; no hydrophilic solute): 1

SMILES: CC(C)(C)O [t-BuOH, 2-methyl-2-propanol]
- Enrichment in the light phase compared to the heavy phase (factor) [13, 15]: about 3.5
- t-BuOH concentration in the heavy phase [13, 15]: about 150 g/L
- t-BuOH concentration in the light phase [13, 15]: about 520 g/L
- Miscibility with water ([13]; any proportion, no additive): fully miscible with water

Now from value to compound:

- Increase of alcohol concentration in the gasoline phase in the presence of glucose [3]: greater than 10 fold
- Alcohol Wt % in heavy phase [3]: 0.16 Wt %
- Alcohol Wt % in light phase [3]: 3.4 Wt %
- Alcohol Da [3]: 21
- Increase of alcohol concentration in the gasoline phase in the presence of calcium chloride [4]: greater than 10 fold
- Alcohol Wt % in heavy phase [4]: 0.14 Wt %
- Alcohol Wt % in light phase [4]: 2.2 Wt %
- Alcohol Da [4]: 15
SMILES: CCCCCO [PenOH, n-Pentanol]

- i-BuOH Wt % in heavy phase ([8]; equilibrium): 0.22 Wt % and 1.2 Wt % and 1.9 Wt %
- i-BuOH Wt % in light phase ([8]; equilibrium): 1.2 Wt % and 5.6 Wt % and 9.8 Wt %
- Enrichment factor ([8]; Da/Dw): 76 and 74 and 82
- Distribution coefficient i-BuOH Da ([8]; light/heavy phase): 5.4 and 4.9 and 5.2
- Enrichment factor ([2]; Da/Dw, decanol): 116 and 119 and 99
- i-BuOH Wt % in heavy phase ([2]; decanol, equilibrium): 1.4 Wt % and 2.2 Wt % and 0.30 Wt %
- Distribution coefficient i-BuOH Da ([2]; light/heavy phase, decanol): 5.2 and 5.5 and 3.8
- i-BuOH Wt % in heavy phase ([1]; 2-Heptanone, equilibrium): 1.7 Wt % and 2.0 Wt % and 0.44 Wt %
- i-BuOH Wt % in light phase ([1]; 2-Heptanone, equilibrium): 5.4 Wt % and 8.4 Wt % and 1.15 Wt %
- Enrichment factor ([1]; Da/Dw, 2-Heptanone): 125 and 116 and 155
- Distribution coefficient i-BuOH Da ([1]; light/heavy phase, 2-Heptanone): 3.3 and 4.1 and 2.6
- Increase of alcohol concentration in the gasoline phase in the presence of glucose [3]: 2 fold
- Alcohol Wt % in heavy phase [3]: 1.4 Wt %
- Alcohol Wt % in light phase [3]: 1.9 Wt %
- Alcohol Da [3]: 1.36
- Increase of alcohol concentration in the gasoline phase in the presence of calcium chloride [4]: 4.5 fold
- Alcohol Wt % in heavy phase [4]: 0.94 Wt %
- Alcohol Wt % in light phase [4]: 3.3 Wt %
- Alcohol Da [4]: 3.5
- Alcohol in heavy phase (% w/w) [9]: 5.1 % w/w
- Alcohol in light phase (% w/w) [9]: 87 % w/w
- Concentration in the light phase compared to the starting solution [9]: approximately 12 fold
- Distribution coefficient ([9]; light/heavy phase): 17
- Alcohol in heavy phase (% w/w) [10]: 2.9 % w/w
- Alcohol in light phase (% w/w) [10]: 91 % w/w
- Concentration in the light phase compared to the starting solution [10]: approximately 23 fold
- Distribution coefficient ([10]; light/heavy phase): 31
- Isobutanol Wt % in light phase ([11]; 5° C.): 83.9 Wt %
- Isobutanol Wt % in light phase ([11]; 10° C.): 84.0 Wt %
- Isobutanol Wt % in light phase ([11]; 20° C.): 83.4 Wt %
- Isobutanol Wt % in light phase ([11]; 40° C.): 81.5 Wt %
- Isobutanol Wt % in light phase ([11]; 60° C.): 79.1 Wt %
- Isobutanol Wt % in light phase ([11]; 80° C.): 76.5 Wt %
- Phases observed after settling [12]: two liquid phases
SMILES: CC(C)CO [i-BuOH, 2-methyl-1-propanol]
